Results published in PMC12171880, “Selectivity and Safety Characterization of a Xanthine–Imidazothiazole Lead Structure: a Novel Tryptophan Hydroxylase Inhibitor of Peripheral Serotonin Synthesis” (ACS Pharmacology & Translational Science, 2025).

Experiments:
Sprague–Dawley rats [1] = assay: Dose-range finding study in rats, in-life phase; format: in vivo, rat
Protocol: The in-life phase of the experiment was performed at Pharmacelsus GmbH (Saarbrücken, Germany) and enrolled 24 Sprague–Dawley rats (12 males and 12 females) provided by Janvier Laboratories (France); the animals were 7 weeks old at delivery. Inclusion criteria (sex, appropriate body weight, and absence of behavioral changes) were established prior to the study’s commencement. The animals were housed in a temperature-controlled room (20–24 °C) and maintained in a 12 h light/12 h dark cycle. Before the start of the study, the animals underwent a six-day acclimation period. Food and water were available ad libitum throughout the duration of the study.
(§1) TPT-004 was formulated in 0.5% (w/v) CMC-Na in water and administered by oral gavage (PO) twice daily (b.i.d.) with a 12 h interval to the treatment groups (3 male and 3 female Sprague–Dawley rats each) for 8 days (15 successive applications). Rats were dosed with 10, 45, and 200 mg/kg, i.e., daily doses of 20, 90, and 400 mg/kg. In addition, a control group was dosed at the same frequency as the vehicle (0.5% CMC-Na).
Blood samples were collected as described below. The animal sacrifice (exsanguination) was performed on day 8. During the necropsy, the selected organs were collected, weighed, and shipped to a third-party laboratory for histopathological examination (as described below).

Sprague–Dawley rats [2] = assay: Dose-range finding study in rats, hematology; format: in vivo, rat; parameters: red cell distribution width (RDW): unit not given here; details: for ERY / HCT / HGB / LEU / LYM / LYM (%) / MCH / MCHC / MCV / MON / MON (%) / MPV / NEU / NEU (%) / PCT / PDWc / PDWs / PLT / RDWc / RDWs: day 8
Protocol: as §1
A blood sample of 100 μL was obtained from each rat by puncturing one of the lateral tail veins under short isoflurane anesthesia. Blood was collected in tubes containing lithium heparin and gently mixed. After centrifugation (10 min at 3000g, 4 °C), plasma was separated and stored at −20 °C until LC-MS analysis. In addition, on day 8, the rats were exsanguinated by cardiac puncture under isoflurane anesthesia. A volume of 100 μL of blood (K3-EDTA) was used for immediate cell blood count, while the rest of the blood was mixed with lithium heparin and centrifuged to generate plasma for clinical chemistry analysis.

[3] = test system: Sugen–Hypoxia rat model of pulmonary arterial hypertension; details: previous study; cited from earlier work
recombinant human TH = biological target: T1, recombinant human TH (Homo sapiens, UniProt P07101); assay: TH enzymatic activity assay (fluorescence, 96-well); format: biochemical
T1 construct: For purification of MBP-tagged full-length PAH and TH; made in house; host or cells: E. coli T7 Express (NEB) with pRARE2
Protocol: The TH enzymatic activity assay was performed using a 96-well plate format (Greiner). […] To initiate the reaction, L-Tyr (Fluka) was added (final concentration, 30 μM). The assay contained positive control samples (complete reaction mix, no inhibitor test compound), negative control samples (reaction mix without BH4), and an additional L-Tyr control (reaction mix without BH4, spiked with 25.5 μM or 27 μM L-Tyr) to measure the progression of the enzymatic reaction. All samples were measured in technical triplicates. The TH assay was performed at RT for 30 min. Depletion of the reaction substrate (L-Tyr) was continuously monitored at 240 s intervals by fluorescence measurements (ex.280 nm/em.306 nm) for 12 min using a Tecan Infinite 200 plate reader.
Negative control values (no enzyme or no substrate) were deducted from the positive control (full enzyme activity) and test compound values. Subsequently, the data were normalized (Pos. Ctr. = 100% of the enzyme activity). The results were further analyzed with GraphPad Prism 9 using the nonlinear regression model: log(inhibitor) vs. response−variableslope(fourparameters) which fits the following equation to the data: Y=Bottom+(Top−Bottom)/(1+10^((logIC50−X)×HillSlope))
The IC50 values were calculated from three independent experiments and are given as the mean ± SD.

[4] = two rodent species; previously published pharmacokinetic data; cited from earlier work
brain serotonin turnover = details: mice, 1.5 mg/kg BID to 100 mg/kg BID; prior pharmacodynamic studies; cited from earlier work
[5] = 10, 45, or 200 mg/kg BID PO, 8 days
[6] = 10, 45 or 200 mg/kg BID PO, D1 to D8

T1 sequence (P07101 whole entry): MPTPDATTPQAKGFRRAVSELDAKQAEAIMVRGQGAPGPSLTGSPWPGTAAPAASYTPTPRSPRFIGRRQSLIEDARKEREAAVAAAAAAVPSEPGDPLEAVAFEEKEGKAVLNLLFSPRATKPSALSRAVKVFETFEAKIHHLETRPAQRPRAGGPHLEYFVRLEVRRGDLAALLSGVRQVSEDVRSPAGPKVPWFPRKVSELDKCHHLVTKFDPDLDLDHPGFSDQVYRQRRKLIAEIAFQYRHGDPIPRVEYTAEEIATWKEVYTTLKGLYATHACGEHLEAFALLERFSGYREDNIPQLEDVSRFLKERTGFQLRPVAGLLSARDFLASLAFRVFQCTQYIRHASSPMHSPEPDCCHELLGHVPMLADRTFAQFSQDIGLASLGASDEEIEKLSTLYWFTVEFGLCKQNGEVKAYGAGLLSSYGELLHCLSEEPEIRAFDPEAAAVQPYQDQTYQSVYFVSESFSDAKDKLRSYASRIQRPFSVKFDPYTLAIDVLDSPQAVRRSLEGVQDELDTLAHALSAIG

CCn1c(=O)[nH]c(=O)c2c1nc(Cc1cn3cc(C)sc3n1)n2CC1COC1 [TPT-004]
clinical signs (Sprague–Dawley rats [1]; [5]): None of the rats exhibited clinical signs | survival (Sprague–Dawley rats [1]; [5]): All of the animals survived | body weight (Sprague–Dawley rats [1]; [6]): increased normally | food consumption (Sprague–Dawley rats [1]; [6]): in the same range as that of the control group | ERY (Sprague–Dawley rats [2]; 10 mg/kg PO BID): 8.15e+12 L⁻¹ | HCT (Sprague–Dawley rats [2]; 10 mg/kg PO BID): 49.64% | HGB (Sprague–Dawley rats [2]; 10 mg/kg PO BID): 13.9 g/dL | LEU (Sprague–Dawley rats [2]; 10 mg/kg PO BID): 1.308e+10 L⁻¹ | LYM (Sprague–Dawley rats [2]; 10 mg/kg PO BID): 1.091e+10 L⁻¹ | LYM (%) (Sprague–Dawley rats [2]; 10 mg/kg PO BID): 82.8% | MCH (Sprague–Dawley rats [2]; 10 mg/kg PO BID): 17.1 pg | MCHC (Sprague–Dawley rats [2]; 10 mg/kg PO BID): 28.0 g/dL | MCV (Sprague–Dawley rats [2]; 10 mg/kg PO BID): 61 fL | MON (Sprague–Dawley rats [2]; 10 mg/kg PO BID): 5.8e+08 L⁻¹ | MON (%) (Sprague–Dawley rats [2]; 10 mg/kg PO BID): 4.0% | MPV (Sprague–Dawley rats [2]; 10 mg/kg PO BID): 8.2 fL | NEU (Sprague–Dawley rats [2]; 10 mg/kg PO BID): 1.59e+09 L⁻¹ | NEU (%) (Sprague–Dawley rats [2]; 10 mg/kg PO BID): 13.3% | PCT (Sprague–Dawley rats [2]; 10 mg/kg PO BID): 0.15% | PDWc (Sprague–Dawley rats [2]; 10 mg/kg PO BID): 33.7% | PDWs (Sprague–Dawley rats [2]; 10 mg/kg PO BID): 12.3 fL | PLT (Sprague–Dawley rats [2]; 10 mg/kg PO BID): 1.69e+11 L⁻¹ | RDWc (Sprague–Dawley rats [2]; 10 mg/kg PO BID): 16.4% | RDWs (Sprague–Dawley rats [2]; 10 mg/kg PO BID): 37.6 fL | ERY (Sprague–Dawley rats [2]; 45 mg/kg PO BID): 8.12e+12 L⁻¹ | HCT (Sprague–Dawley rats [2]; 45 mg/kg PO BID): 48.67% | HGB (Sprague–Dawley rats [2]; 45 mg/kg PO BID): 14.0 g/dL | LEU (Sprague–Dawley rats [2]; 45 mg/kg PO BID): 1.748e+10 L⁻¹ | LYM (Sprague–Dawley rats [2]; 45 mg/kg PO BID): 1.446e+10 L⁻¹ | LYM (%) (Sprague–Dawley rats [2]; 45 mg/kg PO BID): 82.7% | MCH (Sprague–Dawley rats [2]; 45 mg/kg PO BID): 17.3 pg | MCHC (Sprague–Dawley rats [2]; 45 mg/kg PO BID): 28.8 g/dL | MCV (Sprague–Dawley rats [2]; 45 mg/kg PO BID): 60 fL | MON (Sprague–Dawley rats [2]; 45 mg/kg PO BID): 1.07e+09 L⁻¹ | MON (%) (Sprague–Dawley rats [2]; 45 mg/kg PO BID): 6.2% | MPV (Sprague–Dawley rats [2]; 45 mg/kg PO BID): 8.3 fL | NEU (Sprague–Dawley rats [2]; 45 mg/kg PO BID): 1.95e+09 L⁻¹ | NEU (%) (Sprague–Dawley rats [2]; 45 mg/kg PO BID): 11.1% | PCT (Sprague–Dawley rats [2]; 45 mg/kg PO BID): 0.08% | PDWc (Sprague–Dawley rats [2]; 45 mg/kg PO BID): 36.1% | PDWs (Sprague–Dawley rats [2]; 45 mg/kg PO BID): 13.9 fL | PLT (Sprague–Dawley rats [2]; 45 mg/kg PO BID): 1.04e+11 L⁻¹ | RDWc (Sprague–Dawley rats [2]; 45 mg/kg PO BID): 17.2% | RDWs (Sprague–Dawley rats [2]; 45 mg/kg PO BID): 38.7 fL | red cell distribution width (RDW) (Sprague–Dawley rats [2]; 200 mg/kg BID, vehicle 16.4 ± 0.8, p = 0.0109): 19.3 ± 1.6 | ERY (Sprague–Dawley rats [2]; 200 mg/kg PO BID): 8.03e+12 L⁻¹ | HCT (Sprague–Dawley rats [2]; 200 mg/kg PO BID): 45.70% | HGB (Sprague–Dawley rats [2]; 200 mg/kg PO BID): 13.1 g/dL | LEU (Sprague–Dawley rats [2]; 200 mg/kg PO BID): 1.534e+10 L⁻¹ | LYM (Sprague–Dawley rats [2]; 200 mg/kg PO BID): 1.263e+10 L⁻¹ | LYM (%) (Sprague–Dawley rats [2]; 200 mg/kg PO BID): 82.9% | MCH (Sprague–Dawley rats [2]; 200 mg/kg PO BID): 16.4 pg | MCHC (Sprague–Dawley rats [2]; 200 mg/kg PO BID): 28.7 g/dL | MCV (Sprague–Dawley rats [2]; 200 mg/kg PO BID): 57 fL | MON (Sprague–Dawley rats [2]; 200 mg/kg PO BID): 7.4e+08 L⁻¹ | MON (%) (Sprague–Dawley rats [2]; 200 mg/kg PO BID): 4.8% | MPV (Sprague–Dawley rats [2]; 200 mg/kg PO BID): 8.3 fL | NEU (Sprague–Dawley rats [2]; 200 mg/kg PO BID): 1.97e+09 L⁻¹ | NEU (%) (Sprague–Dawley rats [2]; 200 mg/kg PO BID): 12.3% | PCT (Sprague–Dawley rats [2]; 200 mg/kg PO BID): 0.14% | PDWc (Sprague–Dawley rats [2]; 200 mg/kg PO BID): 35.8% | PDWs (Sprague–Dawley rats [2]; 200 mg/kg PO BID): 13.7 fL | PLT (Sprague–Dawley rats [2]; 200 mg/kg PO BID): 1.79e+11 L⁻¹ | RDWc (Sprague–Dawley rats [2]; 200 mg/kg PO BID): 19.3% | RDWs (Sprague–Dawley rats [2]; 200 mg/kg PO BID): 40.8 fL | hematology parameters, overall (Sprague–Dawley rats [2]; [5]): did not alter the hematology parameters | number of platelets (PLT), differences to control (Sprague–Dawley rats [2]; [5]): these differences were not significant | dose needed to achieve the therapeutic effects [3]: 10 mg/kg BID | Mean TH activity [%] (recombinant human TH; 10 nM): 92.60% | IC50 (recombinant human TH; 10 nM to 30 μM, 30 μM L-Tyr, 5 μM BH4): 1360 nM | Mean TH activity [%] (recombinant human TH; 30 nM): 90.14% | Mean TH activity [%] (recombinant human TH; 100 nM): 95.57% | Mean TH activity [%] (recombinant human TH; 300 nM): 86.81% | Mean TH activity [%] (recombinant human TH; 1 μM): 58.14% | Mean TH activity [%] (recombinant human TH; 3 μM): 28.97% | Mean TH activity [%] (recombinant human TH; 10 μM): 6.59% | Mean TH activity [%] (recombinant human TH; 30 μM): -6.30% | Selectivity ratio TH IC50 : TPH1 IC50 (recombinant human TH; calculated from determined IC50 values): 40.71 | IC50 (recombinant human TH; supplementary CSV): 1360 nM | blood-brain barrier penetration [4]: exceptionally low blood-brain barrier penetration | balance of brain serotonin turnover (brain serotonin turnover): did not show an altered balance of brain serotonin turnover
